Test results published in patent US20160175306A1, “COMBINATION OF A IMIDAZOPYRIDAZINE DERIVATIVE AND A MITOTIC AGENT FOR THE TREATMENT OF CANCER” (BAYER PHARMA AKTIENGESELLSCHAFT, priority 2013, published 2016).
pIC50: −log10 of the molar value. Several values for one entry are separate records, joined by “and”; a condition that tells them apart may be missing. Identical values can stand only once. Like-named read-outs stand apart in the source and are kept apart here.

What was measured:
human CYP3A4 = molecular target: T1, human CYP3A4 (Homo sapiens, UniProt P08684); test: Determination of inhibitory potential on human CYP3A4; type: in vitro ADME; details: human liver microsomes, midazolam substrate; read-out: inhibition of liver enzyme CYP3A4
T1 construct: Human liver microsomal preparation (pool of HLM) was applied for the assay; from tissue; host or cells: pooled human liver microsomes
Experimental: Determination of Inhibitory Potential on Human CYP3A4
The potential of the test compound to act as a competitive inhibitor of CYP3A4 was evaluated in in vitro assays, using human liver microsomes and the reference substrate midazolam. The test compound was solved in acetonitrile. Human liver microsomal preparation (pool of HLM) was applied for the assay.
A stock solution of the test compound was added to phosphate buffer containing EDTA, NADP, glucose 6-phosphate, and glucose 6-phosphate dehydrogenase. This mixture was sequentially diluted on a Genesis Workstation (Tecan, Crailsheim, FRG). After pre-warming, reaction was initiated by addition of a mixture of probe substrate (midazolam). […] The reference samples (substrate, but no inhibitor) were incubated in parallel in sextuple and contained the same amount of solvent as the test incubations. Reactions were stopped by addition of 100 μL acetonitrile containing the internal standard. Precipitated proteins were removed by centrifugation of the well plate, supernatants were analyzed by LC-MS/MS.
The CYP3A4-mediated metabolic activity in the presence of the test compounds was expressed as percentages of the corresponding reference value. […]

[1] = system: spindle assembly checkpoint in HeLa cells (phosphorylated histone H3 on serine 10); test: Spindle Assembly Checkpoint Assay; type: cell-based; details: Homo sapiens, nocodazole 0.1 μg/ml, 4 h with compound
Excerpt: The spindle assembly checkpoint assures the proper segregation of chromosomes during mitosis. Upon entry into mitosis, chromosomes begin to condensate which is accompanied by the phosphorylation of histone H3 on serine 10. Dephosphorylation of histone H3 on serine 10 begins in anaphase and ends at early telophase. Accordingly, phosphorylation of histone H3 on serine 10 can be utilized as a marker of cells in mitosis. Nocodazole is a microtubule destabilizing substance. Thus, nocodazole interferes with microtubule dynamics and mobilises the spindle assembly checkpoint. […] An inhibition of the spindle assembly checkpoint by Mps-1 inhibitors overrides the mitotic blockage in the presence of nocodazole, and the cells complete mitosis prematurely. This alteration is detected by the decrease of cells with phosphorylation of histone H3 on serine 10. This decline is used as a marker to determine the capability of compounds of the present invention to induce a mitotic breakthrough.
Cultivated cells of the human cervical tumour cell line HeLa (ATCC CCL-2) were plated at a density of 2500 cells/well in a 384-well microtiter plate in 20 μl Dulbeco's Medium (w/o phenol red, w/o sodium pyruvate, w […] glucose, w pyridoxine) supplemented with 1% (v/v) glutamine, 1% (v/v) penicillin, 1% (v/v) streptomycin and 10% (v/v) fetal calf serum. After incubation overnight at 37° C., 10 μl/well nocodazole at a final concentration of 0.1 μg/ml were added to cells. After 24 h incubation, cells were arrested at G2/M phase of the cell cycle progression. […] Images were acquired with a Perkin Elmer OPERA™ High-Content Analysis reader. Images were analyzed with image analysis software MetaXpress™ from Molecular devices utilizing the Cell Cycle application module. In this assay both labels HOECHST 33342 and phosphorylated Histone H3 on serine 10 were measured. […] The raw assay data were further analysed by four parameter logistic regression analysis to determine the IC50 value for each tested compound.

[2] = system: HeLa human cervical tumour cells; test: Proliferation Assay with HeLa cells; type: cell-based; details: 96 h, 4 days, crystal violet
Experimental: After 24 hours, the cells of one plate (zero-point plate) were stained with crystal violet (see below), while the medium of the other plates was replaced by fresh culture medium (200 μl), to which the test substances were added in various concentrations (0 μM, as well as in the range of 0.01-30 μM; the final concentration of the solvent dimethyl sulfoxide was 0.5%). The cells were incubated for 4 days in the presence of test substances. […] After three washing cycles of the fixed cells with water, the plates were dried at room temperature. The cells were stained by adding 100 μl/measuring point of a 0.1% crystal violet solution (pH 3.0). After three washing cycles of the stained cells with water, the plates were dried at room temperature. The dye was dissolved by adding 100 μl/measuring point of a 10% acetic acid solution. […] The change of cell number, in percent, was calculated by normalization of the measured values to the extinction values of the zero-point plate (=0%) and the extinction of the untreated (0 μm) cells (=100%). The IC50 values were determined by means of a 4 parameter fit using the company's own software.

[3] = system: NCI-H1299 human NSCLC xenograft model; details: for T/C weight: mean final tumor weight; for T/C area: relative tumor area at control dosing stop (22 treatment days)
Excerpt: In Vivo Anti-Tumor Efficacy of Mps-1 Kinase Inhibitors of the Present Invention in Combination with Paclitaxel in NCI-H1299 Human NSCLC Model in Nude Mice
The effect of combination treatment of an Mps-1 kinase inhibitor of the present invention and paclitaxel was studied in the NCI-H1299 taxane intrinsically resistant human lung carcinoma (NSCLC) xenograft model in nude mice. […] Substances were formulated in optimal vehicles to achieve solutions. Animal body weight and tumor size were determined three times weekly. Treatment for all groups started at a tumor size of 30 mm^2, at day 8 after tumor cell inoculation. […] At the end of the study after one final treatment plasma and tumors were sampled for PK analysis and final tumor weight was determined.

[4] = system: A2780cis human ovarian cancer xenograft model; details: for T/C weight: mean final tumor weight; for T/C area: relative tumor area at control dosing stop (15 treatment days)
Experimental: In Vivo Anti-Tumor Efficacy of Mps-1 Kinase Inhibitors of the Present Invention in Combination with Paclitaxel in A2780cis Human Ovarian Cancer Model in Nude Mice
The effect of combination treatment of an Mps-1 kinase inhibitor of the present invention and paclitaxel was studied in the adaptive cisplatin-resistant and paclitaxel intrinsically resistant A2780cis xenograft model. […] Animal body weight and tumor size were determined three times weekly. Treatment for all groups started at a tumor size of 29 mm^2, at day 6 after tumor cell inoculation. […] At the end of the study after one final treatment plasma and tumors were sampled for PK analysis and final tumor weight was determined.

[5] = Compound A27 2 mg/kg 2QD 2on/5off p.o.
[6] = Compound A27 3 mg/kg 2QD 2on/5off p.o.

T1 sequence (P08684 whole entry): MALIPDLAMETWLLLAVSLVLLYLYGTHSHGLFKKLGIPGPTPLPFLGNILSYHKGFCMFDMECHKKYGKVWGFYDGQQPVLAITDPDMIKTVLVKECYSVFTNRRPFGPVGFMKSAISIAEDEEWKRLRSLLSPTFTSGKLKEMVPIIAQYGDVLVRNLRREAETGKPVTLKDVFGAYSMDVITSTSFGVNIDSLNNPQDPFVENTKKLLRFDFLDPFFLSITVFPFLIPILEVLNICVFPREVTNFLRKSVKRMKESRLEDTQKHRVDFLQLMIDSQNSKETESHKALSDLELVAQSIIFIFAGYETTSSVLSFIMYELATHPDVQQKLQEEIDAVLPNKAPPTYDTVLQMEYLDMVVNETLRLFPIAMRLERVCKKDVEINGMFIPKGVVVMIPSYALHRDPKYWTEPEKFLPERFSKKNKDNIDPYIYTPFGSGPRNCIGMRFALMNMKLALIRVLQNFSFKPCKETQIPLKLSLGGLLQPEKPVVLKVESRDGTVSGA

Row | Compound | pIC50 (human CYP3A4) | pIC50 [1] | pIC50 [2] | Fatal Tox [3, 5] | T/C weight [3, 5] | T/C area [3, 5] | Fatal Tox [3, 6] | T/C weight [3, 6] | T/C area [3, 6] | Fatal Tox [4, 5] | T/C weight [4, 5] | T/C area [4, 5] | Fatal Tox [4, 6] | T/C weight [4, 6] | T/C area [4, 6]
1 | COc1ccc(Oc2cc(NCC3COC3)c3ncc(-c4ccc(C(=O)NC5CC5)c(C)c4)n3n2)cc1F [Compound A26, N-cyclopropyl-4-{6-(3-fluoro-4-methoxyphenoxy)-8-[(oxetan-3-ylmethyl)amino]imidazo[1,2-b]pyridazin-3-yl}-2-methylbenzamide] | ≤ 5.30 | > 9.00 | > 7.60 | – | – | – | – | – | – | – | – | – | – | – | –
2 | COc1ccc(Oc2cc(NCCC(F)(F)F)c3ncc(-c4ccc(C(=O)NC5CC5)c(C)c4)n3n2)c(F)c1F [Compound A27, N-cyclopropyl-4-{6-(2,3-difluoro-4-methoxyphenoxy)-8-[(3,3,3-trifluoropropyl)amino]imidazo[1,2-b]pyridazin-3-yl}-2-methylbenzamide] | – | > 9.00 | – | 0/10 | 1.18 | 0.99 and 0.98 | 0/10 | 0.74 | 0.64 | 0/10 | 0.98 | 1.00 | 0/10 | 0.88 | 0.90
3 | COc1ccc(Oc2cc(NCC3CCOCC3)c3ncc(-c4ccc(C(=O)NC5CC5)c(C)c4)n3n2)c(F)c1F [Compound A28, N-cyclopropyl-4-{6-(2,3-difluoro-4-methoxyphenoxy)-8-[(tetrahydro-2H-pyran-4-ylmethyl)amino]imidazo[1,2-b]pyridazin-3-yl}-2-methylbenzamide] | ≤ 5.30 | > 9.00 | > 7.60 | – | – | – | – | – | – | – | – | – | – | – | –
